In the supplement of paper PMC11451515:

Tested on: SEM cells
Experiment: cell viability relative to DMSO control; higher = less cytotoxic
Settings: 48 h
In short: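 Library compounds in DMSO were pin-dosed into 1536-well plates (5 μl) holding NOMO1 or SEM (500 cells/well) or P12-Ichikawa (1000 cells/well) leukemia cells, across an 11-point threefold series of 47 μM to 0.79 nM. Each cell line had been adapted for at least four passages in each medium. CellTiter-Glo One luminescence was read after 48 h at 37°C. Viability is the per-plate percentage relative to DMSO wells, with cell-free wells as background.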

[1] = HPLM + 10% dialyzed FBS, 0.000781 µM
[2] = HPLM + 10% dialyzed FBS, 0.00234 µM
[3] = HPLM + 10% dialyzed FBS, 0.00702 µM
[4] = HPLM + 10% dialyzed FBS, 0.0211 µM
[5] = HPLM + 10% dialyzed FBS, 0.0632 µM
[6] = HPLM + 10% dialyzed FBS, 0.19 µM
[7] = HPLM + 10% dialyzed FBS, 0.569 µM
[8] = HPLM + 10% dialyzed FBS, 1.71 µM
[9] = HPLM + 10% dialyzed FBS, 5.12 µM
[10] = HPLM + 10% dialyzed FBS, 15.4 µM
[11] = HPLM + 10% dialyzed FBS, 46.1 µM
[12] = RPMI 5 mM glucose + 10% FBS, 0.000781 µM
[13] = RPMI 5 mM glucose + 10% FBS, 0.00234 µM
[14] = RPMI 5 mM glucose + 10% FBS, 0.00702 µM
[15] = RPMI 5 mM glucose + 10% FBS, 0.0211 µM
[16] = RPMI 5 mM glucose + 10% FBS, 0.0632 µM
[17] = RPMI 5 mM glucose + 10% FBS, 0.19 µM
[18] = RPMI 5 mM glucose + 10% FBS, 0.569 µM
[19] = RPMI 5 mM glucose + 10% FBS, 1.71 µM
[20] = RPMI 5 mM glucose + 10% FBS, 5.12 µM
[21] = RPMI 5 mM glucose + 10% FBS, 15.4 µM
[22] = RPMI 5 mM glucose + 10% FBS, 46.1 µM
[23] = RPMI 5 mM glucose + 10% dialyzed FBS, 0.000781 µM
[24] = RPMI 5 mM glucose + 10% dialyzed FBS, 0.00234 µM
[25] = RPMI 5 mM glucose + 10% dialyzed FBS, 0.00702 µM
[26] = RPMI 5 mM glucose + 10% dialyzed FBS, 0.0211 µM
[27] = RPMI 5 mM glucose + 10% dialyzed FBS, 0.0632 µM
[28] = RPMI 5 mM glucose + 10% dialyzed FBS, 0.19 µM
[29] = RPMI 5 mM glucose + 10% dialyzed FBS, 0.569 µM
[30] = RPMI 5 mM glucose + 10% dialyzed FBS, 1.71 µM
[31] = RPMI 5 mM glucose + 10% dialyzed FBS, 5.12 µM
[32] = RPMI 5 mM glucose + 10% dialyzed FBS, 15.4 µM
[33] = RPMI 5 mM glucose + 10% dialyzed FBS, 46.1 µM

O=C1Nc2ccc(I)cc2/C1=C/c1cc(Br)c(O)c(Br)c1
cell viability [1]: 98.4% | cell viability [2]: 107% | cell viability [3]: 103% | cell viability [4]: 104% | cell viability [5]: 101% | cell viability [6]: 111% | cell viability [7]: 107% | cell viability [8]: 96.5% | cell viability [9]: 105% | cell viability [10]: 94.6% | cell viability [11]: 76.8% | cell viability [12]: 113% | cell viability [13]: 113% | cell viability [14]: 105% | cell viability [15]: 112% | cell viability [16]: 102% | cell viability [17]: 115% | cell viability [18]: 118% | cell viability [19]: 110% | cell viability [20]: 108% | cell viability [21]: 88.4% | cell viability [22]: 67.5% | cell viability [23]: 115% | cell viability [24]: 109% | cell viability [25]: 115% | cell viability [26]: 111% | cell viability [27]: 121% | cell viability [28]: 106% | cell viability [29]: 121% | cell viability [30]: 110% | cell viability [31]: 104% | cell viability [32]: 89% | cell viability [33]: 62.5%

COc1cc2c(Nc3ccc(Br)cc3F)ncnc2cc1OCC1CCN(C)CC1
cell viability [1]: 45.3% | cell viability [2]: 81.6% | cell viability [3]: 94.3% | cell viability [4]: 69.3% | cell viability [5]: 71.4% | cell viability [6]: 76.8% | cell viability [7]: 72.2% | cell viability [8]: 65% | cell viability [9]: 79.4% | cell viability [10]: 31% | cell viability [11]: 66.2% | cell viability [12]: 67.3% | cell viability [13]: 124% | cell viability [14]: 111% | cell viability [15]: 112% | cell viability [16]: 118% | cell viability [17]: 110% | cell viability [18]: 84.2% | cell viability [19]: 88.7% | cell viability [20]: 98.1% | cell viability [21]: 58.9% | cell viability [22]: 74.1% | cell viability [23]: 40% | cell viability [24]: 83.4% | cell viability [25]: 91% | cell viability [26]: 89.2% | cell viability [27]: 63.7% | cell viability [28]: 80.7% | cell viability [29]: 81.7% | cell viability [30]: 63.2% | cell viability [31]: 79.1% | cell viability [32]: 42.5% | cell viability [33]: 63.5%

COc1ccc2[nH]c([S+]([O-])Cc3ncc(C)c(OC)c3C)nc2c1 (stereo unspecified)
cell viability [1]: 83.2% | cell viability [2]: 84.8% | cell viability [3]: 66.8% | cell viability [4]: 87.9% | cell viability [5]: 71.9% | cell viability [6]: 70.5% | cell viability [7]: 86.6% | cell viability [8]: 42.6% | cell viability [9]: 72.8% | cell viability [10]: 74.9% | cell viability [11]: 75.7% | cell viability [12]: 83.8% | cell viability [13]: 91% | cell viability [14]: 83.9% | cell viability [15]: 101% | cell viability [16]: 77.3% | cell viability [17]: 100% | cell viability [18]: 96.8% | cell viability [19]: 63.8% | cell viability [20]: 87.5% | cell viability [21]: 87.1% | cell viability [22]: 69.8% | cell viability [23]: 81.4% | cell viability [24]: 83.5% | cell viability [25]: 77% | cell viability [26]: 95.8% | cell viability [27]: 76.7% | cell viability [28]: 86.8% | cell viability [29]: 105% | cell viability [30]: 69.7% | cell viability [31]: 76.3% | cell viability [32]: 83.6% | cell viability [33]: 68.3%

C[S+](=O)([O-])c1cccc(CNc2nc(Nc3ccc4c(c3)CCC(=O)N4)ncc2C(F)(F)F)c1
cell viability [12]: 112% | cell viability [13]: 126% | cell viability [14]: 119% | cell viability [15]: 127% | cell viability [16]: 105% | cell viability [17]: 125% | cell viability [18]: 109% | cell viability [19]: 71.5% | cell viability [20]: 63.1% | cell viability [21]: 30.6% | cell viability [22]: 8.79% | cell viability [23]: 111% | cell viability [24]: 114% | cell viability [25]: 98.4% | cell viability [26]: 110% | cell viability [27]: 101% | cell viability [28]: 94.9% | cell viability [29]: 87.3% | cell viability [30]: 74.4% | cell viability [31]: 49.9% | cell viability [32]: 20.5% | cell viability [33]: 4.38%

Cc1cc(Nc2nc(N[C@@H](C)c3ccc(F)cc3)c(C#N)cc2F)n[nH]1
cell viability [1]: 120% | cell viability [2]: 106% | cell viability [3]: 114% | cell viability [4]: 110% | cell viability [5]: 101% | cell viability [6]: 95% | cell viability [7]: 99.1% | cell viability [8]: 88.7% | cell viability [9]: 23.4% | cell viability [10]: 15% | cell viability [11]: 7.41% | cell viability [12]: 112% | cell viability [13]: 104% | cell viability [14]: 111% | cell viability [15]: 112% | cell viability [16]: 107% | cell viability [17]: 112% | cell viability [18]: 103% | cell viability [19]: 93.4% | cell viability [20]: 24.1% | cell viability [21]: 13.3% | cell viability [22]: 6.68% | cell viability [23]: 104% | cell viability [24]: 100% | cell viability [25]: 106% | cell viability [26]: 105% | cell viability [27]: 93.9% | cell viability [28]: 101% | cell viability [29]: 100% | cell viability [30]: 76.9% | cell viability [31]: 23.9% | cell viability [32]: 16.7% | cell viability [33]: 6.42%

C=CCc1cccc(/C=N/NC(=O)CN2CCN(Cc3ccccc3)CC2)c1O
cell viability [1]: 124% | cell viability [2]: 122% | cell viability [3]: 128% | cell viability [4]: 137% | cell viability [5]: 132% | cell viability [6]: 124% | cell viability [7]: 144% | cell viability [8]: 89.4% | cell viability [9]: 103% | cell viability [10]: 29.3% | cell viability [11]: 8.81% | cell viability [12]: 124% | cell viability [13]: 114% | cell viability [14]: 124% | cell viability [15]: 122% | cell viability [16]: 131% | cell viability [17]: 114% | cell viability [18]: 131% | cell viability [19]: 105% | cell viability [20]: 95.4% | cell viability [21]: 54.8% | cell viability [22]: 8.05%

Nc1cccc2c1CN([C@H]1CCC(=O)NC1=O)C2=O
cell viability [1]: 120% | cell viability [2]: 131% | cell viability [3]: 110% | cell viability [4]: 121% | cell viability [5]: 115% | cell viability [6]: 114% | cell viability [7]: 103% | cell viability [8]: 97.6% | cell viability [9]: 81.8% | cell viability [10]: 99.5% | cell viability [11]: 89.5% | cell viability [23]: 109% | cell viability [24]: 108% | cell viability [25]: 117% | cell viability [26]: 111% | cell viability [27]: 120% | cell viability [28]: 109% | cell viability [29]: 111% | cell viability [30]: 103% | cell viability [31]: 103% | cell viability [32]: 88.8% | cell viability [33]: 81.4%

CC1(N2CCC(n3c([C@@H]4CCCNC4)nc4ccccc43)CC2)CCCCCCC1
cell viability [1]: 76.6% | cell viability [2]: 88.6% | cell viability [3]: 99.7% | cell viability [4]: 105% | cell viability [5]: 105% | cell viability [6]: 89.3% | cell viability [7]: 103% | cell viability [8]: 96% | cell viability [9]: 92.5% | cell viability [10]: 72.2% | cell viability [11]: 42.4% | cell viability [12]: 99.3% | cell viability [13]: 87.8% | cell viability [14]: 105% | cell viability [15]: 119% | cell viability [16]: 121% | cell viability [17]: 107% | cell viability [18]: 119% | cell viability [19]: 116% | cell viability [20]: 109% | cell viability [21]: 96.6% | cell viability [22]: 87.3% | cell viability [23]: 103% | cell viability [24]: 78.8% | cell viability [25]: 98.7% | cell viability [26]: 111% | cell viability [27]: 106% | cell viability [28]: 95.7% | cell viability [29]: 117% | cell viability [30]: 113% | cell viability [31]: 130% | cell viability [32]: 77.3% | cell viability [33]: 87.6%
